Test results published in PMC8011931, “Identification, Structure–Activity Relationship, and Biological Characterization of 2,3,4,5-Tetrahydro-1H-pyrido[4,3-b]indoles as a Novel Class of CFTR Potentiators” (Journal of Medicinal Chemistry, 2020).
In brackets after ≈: the same amount, converted by molar mass.

Assays:
[1] = molecular target: F508del-CFTR (Homo sapiens, UniProt P13569, DEL508-508); assay: HS-YFP-based assay for CFTR activity on F508del-CFTR FRT cells rescued at 32 °C for 24 h; format: cell-based; parameters: expressed in transfected cells; key to Emax: fold increase in F508del-CFTR rescue relative to hit 3 (normalized); settings: for EC50: F508del-CFTR FRT cells rescued at 32 °C for 24 h, plus forskolin; for Emax: supplementary csv, same data as Tables 1–3
Chain of F508del-CFTR (P13569 with tags, fused parts or gaps DEL508-508): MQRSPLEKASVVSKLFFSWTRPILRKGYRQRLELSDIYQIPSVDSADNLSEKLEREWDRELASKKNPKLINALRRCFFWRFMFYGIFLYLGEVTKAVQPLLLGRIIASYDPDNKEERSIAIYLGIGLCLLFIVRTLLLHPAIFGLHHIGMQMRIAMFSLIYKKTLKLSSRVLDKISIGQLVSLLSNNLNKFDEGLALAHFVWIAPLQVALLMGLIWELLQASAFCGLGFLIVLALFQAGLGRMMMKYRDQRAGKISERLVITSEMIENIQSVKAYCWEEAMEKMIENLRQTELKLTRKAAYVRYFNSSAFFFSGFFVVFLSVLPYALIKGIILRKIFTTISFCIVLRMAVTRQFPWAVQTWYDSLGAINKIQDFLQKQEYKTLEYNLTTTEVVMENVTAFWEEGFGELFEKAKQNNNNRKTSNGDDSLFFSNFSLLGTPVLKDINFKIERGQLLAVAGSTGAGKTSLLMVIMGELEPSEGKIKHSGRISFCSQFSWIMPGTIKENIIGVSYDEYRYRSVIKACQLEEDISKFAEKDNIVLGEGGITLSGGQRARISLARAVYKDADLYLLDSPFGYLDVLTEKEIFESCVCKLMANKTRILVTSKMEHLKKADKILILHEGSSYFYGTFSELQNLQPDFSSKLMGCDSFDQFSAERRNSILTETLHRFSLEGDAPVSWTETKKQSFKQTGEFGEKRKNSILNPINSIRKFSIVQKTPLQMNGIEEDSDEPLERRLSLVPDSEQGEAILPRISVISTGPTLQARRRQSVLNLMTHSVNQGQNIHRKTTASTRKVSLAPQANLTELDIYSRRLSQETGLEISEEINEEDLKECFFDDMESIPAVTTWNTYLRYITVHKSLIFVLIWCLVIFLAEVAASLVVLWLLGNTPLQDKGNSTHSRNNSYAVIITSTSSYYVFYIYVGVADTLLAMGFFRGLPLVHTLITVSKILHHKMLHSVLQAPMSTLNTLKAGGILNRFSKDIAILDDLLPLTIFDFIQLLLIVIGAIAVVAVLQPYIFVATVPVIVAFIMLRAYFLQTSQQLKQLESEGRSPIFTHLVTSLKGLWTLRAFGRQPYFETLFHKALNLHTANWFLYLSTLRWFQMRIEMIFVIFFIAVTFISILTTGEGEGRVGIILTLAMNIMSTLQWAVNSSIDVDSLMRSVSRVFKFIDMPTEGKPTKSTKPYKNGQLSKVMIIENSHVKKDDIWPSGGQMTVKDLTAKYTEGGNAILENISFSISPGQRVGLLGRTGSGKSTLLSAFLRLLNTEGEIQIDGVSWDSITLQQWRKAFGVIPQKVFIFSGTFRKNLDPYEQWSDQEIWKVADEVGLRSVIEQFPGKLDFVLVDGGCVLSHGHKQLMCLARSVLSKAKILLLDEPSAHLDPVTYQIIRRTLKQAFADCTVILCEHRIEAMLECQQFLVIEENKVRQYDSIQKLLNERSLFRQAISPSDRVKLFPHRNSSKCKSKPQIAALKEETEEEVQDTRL
Method in brief: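 FRT cells co-expressing F508del-CFTR and HS-YFP (H148Q/I152L) were rescued 24 h at 32 °C, then exposed to compound plus forskolin (10 or 20 μM) for about 25 min in PBS. Iodide injection (100 mM final) quenched YFP (ex 500/em 535 nm). The initial dF/dt gave activity, fitted for EC50 and for Emax relative to a reference hit.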

[2] = Aqueous kinetic solubility assay; format: physicochemical; settings: PBS, pH 7.4; n = 3
Experimental: The aqueous kinetic solubility was determined from a 10 mM DMSO stock solution of test compound in PBS at pH 7.4. The study was performed by incubation of an aliquot of 10 mM DMSO stock solution in PBS (pH 7.4) at a target concentration of 250 μM (2.5% DMSO). The incubation was carried out under shaking at 25 °C for 24 h, followed by centrifugation at 21,100g for 30 min. The supernatant was further diluted (4:1) with CH3CN and the dissolved test compound was quantified by UV at 215 nm on a Waters ACQUITY UPLC/MS system consisting of an SQD mass spectrometer equipped with an electrospray ionization interface and a photodiode array detector. Electrospray ionization in the positive mode was used in the mass scan range of 100–500 Da. The PDA range was 210–400 nm. The analyses were run on an ACQUITY UPLC BEH C18 column (50 × 2.1 mm ID, particle size 1.7 μm) with a VanGuard BEH C18 precolumn (5 × 2.1 mm ID, particle size 1.7 μm) using 10 mM NH4OAc in H2O at pH 5 adjusted with AcOH (A) and 10 mM NH4OAc in CH3CN–H2O (95:5) at pH 5 (B) as the mobile phase.

[3] = mean ± SD (n = 3–6), n.a.: not active (up to 20 μM)

With `O=C(c1cc(C(F)(F)F)[nH]n1)N1CCc2[nH]c3c(F)ccc(F)c3c2C1` [Compound 29, (6,9-Difluoro-1,3,4,5-tetrahydro-2H-pyrido[4,3-b]indol-2-yl)-(5-(trifluoromethyl)-1H-pyrazol-3-yl)methanone] the EC50 [1, 3] was 0.15 ± 0.08 µM, the Emax [1] was 1.19 ± 0.15 and the solubility kinetic at 24 h, 250 µM [2] was 36 ± 5 µM (≈ 13.3 µg/mL).

With `COc1cc(F)c2[nH]c3c(c2c1)CN(C(=O)c1cc(C(F)(F)F)[nH]n1)CC3` [Compound 25, (6-Fluoro-8-methoxy-1,3,4,5-tetrahydro-2H-pyrido[4,3-b]indol-2-yl)-(5-(trifluoromethyl)-1H-pyrazol-3-yl)methanone] the EC50 [1, 3] was 0.13 ± 0.06 µM, the Emax [1] was 1.15 ± 0.13 and the solubility kinetic at 24 h, 250 µM [2] was 2 ± 1 µM (≈ 0.765 µg/mL).

In the case of `O=C(c1cc(C(F)(F)F)[nH]n1)N1CCc2[nH]c3c(F)cccc3c2C1` [Compound 20, (6-Fluoro-1,3,4,5-tetrahydro-2H-pyrido[4,3-b]indol-2-yl)-(5-(trifluoromethyl)-1H-pyrazol-3-yl)methanone], the EC50 [1, 3] is reported as 0.096 ± 0.021 µM, the “Emax (FRT F508del-CFTR)” value ([1]; normalized for the activity of analogue 3, mean ± SD (n = 3–6), n.a.: not active (up to 20 μM)) is reported as 0.96 ± 0.06 and the Emax [1] is reported as 0.96 ± 0.06. The solubility kinetic at 24 h, 250 µM [2] was 9 ± 4 µM (≈ 3.17 µg/mL).

In the case of `COc1ccc2[nH]c3c(c2c1)CN(C(=O)c1cc(C(F)(F)F)[nH]n1)CC3` [Compound 3, (8-Methoxy-1,3,4,5-tetrahydropyrido[4,3-b]indol-2-yl)-[5-(trifluoromethyl)-1H-pyrazol-3-yl]methanone], the EC50 [1, 3] is reported as 0.35 ± 0.13 µM, the Emax [1] is reported as 1 ± 0.04 and the solubility kinetic at 24 h, 250 µM [2] is reported as 237 ± 11 µM (≈ 86.3 µg/mL).

For `Cc1ccc(F)c2[nH]c3c(c12)CN(C(=O)c1cc(C(F)(F)F)[nH]n1)[C@H](C)C3` [Compound 39, (R)-(6-Fluoro-3,9-dimethyl-1,3,4,5-tetrahydro-2H-pyrido[4,3-b]indol-2-yl)-(5-(trifluoromethyl)-1H-pyrazol-3-yl)methanone], the “activity on F508del-CFTR FRT cells (in words)” value [1] was “the most potent analogue”, the EC50 [1, 3] was 0.017 ± 0.007 µM and the Emax [1] was 1.30 ± 0.12. The “activity compared to VX-770” value ([1]; tested at 10 and 1 nM, Figure 6A) was “slightly lower activity than VX-770” and the solubility kinetic at 24 h [2] was less than 1 µM.

For `Cc1ccc(F)c2[nH]c3c(c12)CN(C(=O)c1cc(C(F)(F)F)[nH]n1)CC3` [Compound 30, (6-Fluoro-9-methyl-1,3,4,5-tetrahydro-2H-pyrido[4,3-b]indol-2-yl)-(5-(trifluoromethyl)-1H-pyrazol-3-yl)methanone], the “fold increase in potency compared to hit 3” value ([1]; EC50, F508del-CFTR FRT cells) was “more than 6 fold”, the EC50 [1, 3] was 0.06 ± 0.03 µM and the Emax [1] was 1.00 ± 0.09. It also gave a solubility kinetic at 24 h [2] of less than 1 µM.
